Results on twelve molecules are retold here after US9938273B2 (Plexxikon Inc., priority 2015, dated 2018).

For one assay, the target named is T1, FLT3-ITD (Homo sapiens, UniProt P36888).
T1 sequence (P36888 1-993): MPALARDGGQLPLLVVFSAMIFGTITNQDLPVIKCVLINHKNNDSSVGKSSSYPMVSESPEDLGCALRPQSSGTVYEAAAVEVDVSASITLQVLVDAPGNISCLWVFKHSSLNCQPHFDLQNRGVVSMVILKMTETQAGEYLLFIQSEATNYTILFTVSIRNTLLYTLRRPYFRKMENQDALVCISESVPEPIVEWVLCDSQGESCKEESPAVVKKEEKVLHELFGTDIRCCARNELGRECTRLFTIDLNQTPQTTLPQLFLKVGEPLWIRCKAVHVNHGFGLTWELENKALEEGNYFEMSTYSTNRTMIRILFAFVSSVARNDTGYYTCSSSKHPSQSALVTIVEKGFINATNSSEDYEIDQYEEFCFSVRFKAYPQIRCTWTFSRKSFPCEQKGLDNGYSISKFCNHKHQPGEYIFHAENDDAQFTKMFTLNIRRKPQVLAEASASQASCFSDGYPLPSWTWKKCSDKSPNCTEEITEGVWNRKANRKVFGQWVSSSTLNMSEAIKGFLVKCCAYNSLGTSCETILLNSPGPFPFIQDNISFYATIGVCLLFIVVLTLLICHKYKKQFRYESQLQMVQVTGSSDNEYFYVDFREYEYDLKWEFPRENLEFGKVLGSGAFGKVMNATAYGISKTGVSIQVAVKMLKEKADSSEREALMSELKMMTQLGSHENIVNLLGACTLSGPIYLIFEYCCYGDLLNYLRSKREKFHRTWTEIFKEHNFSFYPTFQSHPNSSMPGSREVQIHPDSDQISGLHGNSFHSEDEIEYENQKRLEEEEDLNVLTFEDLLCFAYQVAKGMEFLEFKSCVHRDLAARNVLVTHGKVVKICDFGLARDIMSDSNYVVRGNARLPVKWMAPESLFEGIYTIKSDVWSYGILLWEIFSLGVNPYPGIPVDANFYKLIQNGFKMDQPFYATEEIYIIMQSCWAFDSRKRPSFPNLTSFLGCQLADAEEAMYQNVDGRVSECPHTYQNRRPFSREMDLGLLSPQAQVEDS
The experiment in a line: AlphaScreen kinase assay with recombinant enzyme, FLT3-ITD. It is filed as biochemical. Conditions: 8pt; read-out: FLT3_ITD 8pt: IC50. Put shortly: (§1)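 Tyrosine phosphorylation of biotin-poly(Glu4-Tyr) substrate by recombinant enzyme is detected with PY20 acceptor and streptavidin donor beads after room-temperature incubations of 20 and 60 min. IC50 values were derived at a final 10 μM (FLT3-D835Y, FLT3-ITD) or 100 μM (c-KIT).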
On the technique in general: Bead proximity is the source of the signal in Alpha formats.

In a further assay the target is T2, FLT3-D835Y (Homo sapiens, UniProt P36888, D835Y).
T2 construct: purchased Invitrogen PV3967
T2 sequence (P36888 27-993 D835Y): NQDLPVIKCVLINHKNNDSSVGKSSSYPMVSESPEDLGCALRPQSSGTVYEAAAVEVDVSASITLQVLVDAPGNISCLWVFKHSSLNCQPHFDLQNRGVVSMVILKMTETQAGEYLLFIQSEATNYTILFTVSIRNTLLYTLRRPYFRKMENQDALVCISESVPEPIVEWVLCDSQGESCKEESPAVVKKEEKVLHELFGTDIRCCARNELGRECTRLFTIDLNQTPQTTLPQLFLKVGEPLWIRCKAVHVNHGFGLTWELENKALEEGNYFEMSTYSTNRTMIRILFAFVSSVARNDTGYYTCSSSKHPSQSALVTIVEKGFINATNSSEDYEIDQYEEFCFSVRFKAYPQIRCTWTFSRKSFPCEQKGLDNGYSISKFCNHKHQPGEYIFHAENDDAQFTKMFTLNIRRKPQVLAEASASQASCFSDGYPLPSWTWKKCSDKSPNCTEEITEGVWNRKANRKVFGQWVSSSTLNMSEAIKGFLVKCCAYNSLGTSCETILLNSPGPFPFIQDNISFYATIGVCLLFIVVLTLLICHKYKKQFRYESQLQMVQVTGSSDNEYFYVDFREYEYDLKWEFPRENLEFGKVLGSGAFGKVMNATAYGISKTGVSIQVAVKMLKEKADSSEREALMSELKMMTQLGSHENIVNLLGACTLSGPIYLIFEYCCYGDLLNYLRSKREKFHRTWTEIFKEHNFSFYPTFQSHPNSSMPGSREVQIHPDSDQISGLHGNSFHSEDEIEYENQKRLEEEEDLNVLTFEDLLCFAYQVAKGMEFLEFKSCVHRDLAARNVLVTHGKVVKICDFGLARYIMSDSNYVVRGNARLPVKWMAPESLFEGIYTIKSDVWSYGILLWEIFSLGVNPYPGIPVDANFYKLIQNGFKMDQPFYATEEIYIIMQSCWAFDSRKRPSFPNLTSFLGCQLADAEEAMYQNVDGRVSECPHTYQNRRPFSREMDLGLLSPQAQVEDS
The assay is described as follows: AlphaScreen kinase assay with recombinant enzyme, FLT3-D835Y. Conditions: 8pt, GMean. In kind it is biochemical. Put shortly: as §1

By IC50 is commonly meant the point on the concentration scale where inhibition reaches its midpoint.

With `C#Cc1cc2cc(-c3cccc(C(=O)NC(C)(C)C#N)n3)cnc2[nH]1` [Compound P-0175, N-(1-cyano-1-methyl-ethyl)-6-(2-ethynyl-1H-pyrrolo[2,3-b]pyridin-5-yl)pyridine-2-carboxamide], the IC50 on FLT3-ITD and on FLT3-D835Y was 0.0001 to 10 µM each time.

`CC(C)(C#N)NC(=O)c1cccc(-c2cnc3[nH]c(C#Cc4ccccc4)cc3c2)n1` [Compound P-0176, N-(1-cyano-1-methyl-ethyl)-6-[2-(2-phenylethynyl)-1H-pyrrolo[2,3-b]pyridin-5-yl]pyridine-2-carboxamide]: the concentration for half-maximal inhibition (IC50) on FLT3-ITD and at FLT3-D835Y was 0.0001 to 10 µM throughout.

As to `Cn1cncc1C#Cc1cc2cc(-c3cccc(C(=O)NC(C)(C)C#N)n3)cnc2[nH]1` [Compound P-0177, N-(1-cyano-1-methyl-ethyl)-6-[2-[2-(3-methylimidazol-4-yl)ethynyl]-1H-pyrrolo[2,3-b]pyridin-5-yl]pyridine-2-carboxamide], the IC50 on FLT3-ITD and at FLT3-D835Y was 0.0001 to 10 µM each time.

In the case of `Cc1nn(C(C)C)cc1-c1cc2cc(-c3cccc(C(=O)NC(C)(C)C#N)n3)cnc2[nH]1` [Compound P-0178, N-(1-cyano-1-methyl-ethyl)-6-[2-(1-isopropyl-3-methyl-pyrazol-4-yl)-1H-pyrrolo[2,3-b]pyridin-5-yl]pyridine-2-carboxamide], the IC50 on FLT3-ITD and at FLT3-D835Y was 0.0001 to 10 µM each time.

For the molecule `CC(C)(NC(=O)c1cccc(-c2cnc3[nH]c(C4=CCN(C(=O)C5CC5)C4)cc3c2)n1)C(N)=O` [Compound P-0179, N-(2-amino-1,1-dimethyl-2-oxo-ethyl)-6-[2-[1-(cyclopropanecarbonyl)-2,5-dihydropyrrol-3-yl]-1H-pyrrolo[2,3-b]pyridin-5-yl]pyridine-2-carboxamide], the half-inhibitory concentration (IC50) on FLT3-ITD and on FLT3-D835Y was 0.0001 to 10 µM throughout.

On to `CC(C)(C#N)NC(=O)c1cccc(-c2cnc3[nH]c(C4=CCSCC4)cc3c2)n1` [Compound P-0180, N-(1-cyano-1-methyl-ethyl)-6-[2-(3,6-dihydro-2H-thiopyran-4-yl)-1H-pyrrolo[2,3-b]pyridin-5-yl]pyridine-2-carboxamide], for which the IC50 on FLT3-ITD and at FLT3-D835Y was 0.0001 to 10 µM each time.

Take `CC(C)(C#N)NC(=O)c1cccc(-c2cnc3[nH]c(C4=CCN(C(=O)C5CC5)CC4)cc3c2)n1` [Compound P-0181, N-(1-cyano-1-methyl-ethyl)-6-[2-[1-(cyclopropanecarbonyl)-3,6-dihydro-2H-pyridin-4-yl]-1H-pyrrolo[2,3-b]pyridin-5-yl]pyridine-2-carboxamide]: the IC50 at FLT3-ITD and at FLT3-D835Y was 0.0001 to 10 µM in each case.

`CC(C)(C#N)NC(=O)c1cccc(-c2cnc3[nH]c(C4=CCNCC4)cc3c2)n1` [Compound P-0182, N-(1-cyano-1-methyl-ethyl)-6-[2-(1,2,3,6-tetrahydropyridin-4-yl)-1H-pyrrolo[2,3-b]pyridin-5-yl]pyridine-2-carboxamide]: the IC50 at FLT3-ITD and on FLT3-D835Y was 0.0001 to 10 µM each time.

For the molecule `CC(C)(C#N)NC(=O)c1cccc(-c2cnc3[nH]c(-c4cn[nH]c4)cc3c2)n1` [Compound P-0183, N-(1-cyano-1-methyl-ethyl)-6-[2-(1H-pyrazol-4-yl)-1H-pyrrolo[2,3-b]pyridin-5-yl]pyridine-2-carboxamide], the IC50 at FLT3-ITD and on FLT3-D835Y was 0.0001 to 10 µM throughout.

For the molecule `CC(C)(C#N)NC(=O)c1cccc(-c2cnc3[nH]c(-c4cnn(C5CCNCC5)c4)cc3c2)n1` [Compound P-0187, N-(1-cyano-1-methyl-ethyl)-6-[2-[1-(4-piperidyl)pyrazol-4-yl]-1H-pyrrolo[2,3-b]pyridin-5-yl]pyridine-2-carboxamide], the IC50 on FLT3-ITD and at FLT3-D835Y was 0.0001 to 10 µM in each case.

Regarding `CC(C)(C#N)NC(=O)c1cccc(-c2cnc3[nH]c(C4=CCN(S(=O)(=O)C5CC5)CC4)cc3c2)n1` [Compound P-0188, N-(1-cyano-1-methyl-ethyl)-6-[2-(1-cyclopropylsulfonyl-3,6-dihydro-2H-pyridin-4-yl)-1H-pyrrolo[2,3-b]pyridin-5-yl]pyridine-2-carboxamide], the IC50 on FLT3-ITD and on FLT3-D835Y was 0.0001 to 10 µM throughout.

Take `CC(C)(C#N)NC(=O)c1cccc(-c2cnc3[nH]c(-c4ccc(C5CC5)cc4)cc3c2)n1` [Compound P-0189, N-(1-cyano-1-methyl-ethyl)-6-[2-(4-cyclopropylphenyl)-1H-pyrrolo[2,3-b]pyridin-5-yl]pyridine-2-carboxamide]: the IC50 on FLT3-ITD and at FLT3-D835Y was 0.0001 to 10 µM each time.
